Where a name gives a salt, the structure may show the parent alone.
Assays:
ATM = ATM (Homo sapiens (Human), UniProt Q13315); assay: ATM in Cell Western Assay (pKAP1 in etoposide-treated MCF-7 cells); format: cell-based
Outline: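 Cells received compounds in a 10-dose, 3-fold series from a 1 μM final top concentration, then 100 μM etoposide, for 1 hr at 37° C. They were then fixed with paraformaldehyde and permeabilized with 0.1% Triton X-100. After immunostaining, plates were scanned on an infrared imager.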

DNA-PK = DNA-PK (Homo sapiens (Human), UniProt P78527); assay: DNA-PK Enzyme-Linked Immunosorbent Assay (phosphorylation of GST-p53 (1-101) peptide); format: biochemical; settings: ELISA
Outline: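 ELISA with plate-bound GST-p53 (1-101) phosphorylated by DNA-PK (0.1 μg/mL final) with 20 μM ATP for 1 h at 25 °C. Compounds tested over 10 3-fold doses from 100 nM top final. Phospho-p53 Ser15 detected by antibody, HRP and TMB, absorbance at 450 nm.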

[1] = MCF-7 cells, etoposide 100 μM, 1 hr, pKAP1 readout
[2] = pKAP1 in etoposide-treated MCF-7 cells

ATM, sequence (Q13315 whole entry): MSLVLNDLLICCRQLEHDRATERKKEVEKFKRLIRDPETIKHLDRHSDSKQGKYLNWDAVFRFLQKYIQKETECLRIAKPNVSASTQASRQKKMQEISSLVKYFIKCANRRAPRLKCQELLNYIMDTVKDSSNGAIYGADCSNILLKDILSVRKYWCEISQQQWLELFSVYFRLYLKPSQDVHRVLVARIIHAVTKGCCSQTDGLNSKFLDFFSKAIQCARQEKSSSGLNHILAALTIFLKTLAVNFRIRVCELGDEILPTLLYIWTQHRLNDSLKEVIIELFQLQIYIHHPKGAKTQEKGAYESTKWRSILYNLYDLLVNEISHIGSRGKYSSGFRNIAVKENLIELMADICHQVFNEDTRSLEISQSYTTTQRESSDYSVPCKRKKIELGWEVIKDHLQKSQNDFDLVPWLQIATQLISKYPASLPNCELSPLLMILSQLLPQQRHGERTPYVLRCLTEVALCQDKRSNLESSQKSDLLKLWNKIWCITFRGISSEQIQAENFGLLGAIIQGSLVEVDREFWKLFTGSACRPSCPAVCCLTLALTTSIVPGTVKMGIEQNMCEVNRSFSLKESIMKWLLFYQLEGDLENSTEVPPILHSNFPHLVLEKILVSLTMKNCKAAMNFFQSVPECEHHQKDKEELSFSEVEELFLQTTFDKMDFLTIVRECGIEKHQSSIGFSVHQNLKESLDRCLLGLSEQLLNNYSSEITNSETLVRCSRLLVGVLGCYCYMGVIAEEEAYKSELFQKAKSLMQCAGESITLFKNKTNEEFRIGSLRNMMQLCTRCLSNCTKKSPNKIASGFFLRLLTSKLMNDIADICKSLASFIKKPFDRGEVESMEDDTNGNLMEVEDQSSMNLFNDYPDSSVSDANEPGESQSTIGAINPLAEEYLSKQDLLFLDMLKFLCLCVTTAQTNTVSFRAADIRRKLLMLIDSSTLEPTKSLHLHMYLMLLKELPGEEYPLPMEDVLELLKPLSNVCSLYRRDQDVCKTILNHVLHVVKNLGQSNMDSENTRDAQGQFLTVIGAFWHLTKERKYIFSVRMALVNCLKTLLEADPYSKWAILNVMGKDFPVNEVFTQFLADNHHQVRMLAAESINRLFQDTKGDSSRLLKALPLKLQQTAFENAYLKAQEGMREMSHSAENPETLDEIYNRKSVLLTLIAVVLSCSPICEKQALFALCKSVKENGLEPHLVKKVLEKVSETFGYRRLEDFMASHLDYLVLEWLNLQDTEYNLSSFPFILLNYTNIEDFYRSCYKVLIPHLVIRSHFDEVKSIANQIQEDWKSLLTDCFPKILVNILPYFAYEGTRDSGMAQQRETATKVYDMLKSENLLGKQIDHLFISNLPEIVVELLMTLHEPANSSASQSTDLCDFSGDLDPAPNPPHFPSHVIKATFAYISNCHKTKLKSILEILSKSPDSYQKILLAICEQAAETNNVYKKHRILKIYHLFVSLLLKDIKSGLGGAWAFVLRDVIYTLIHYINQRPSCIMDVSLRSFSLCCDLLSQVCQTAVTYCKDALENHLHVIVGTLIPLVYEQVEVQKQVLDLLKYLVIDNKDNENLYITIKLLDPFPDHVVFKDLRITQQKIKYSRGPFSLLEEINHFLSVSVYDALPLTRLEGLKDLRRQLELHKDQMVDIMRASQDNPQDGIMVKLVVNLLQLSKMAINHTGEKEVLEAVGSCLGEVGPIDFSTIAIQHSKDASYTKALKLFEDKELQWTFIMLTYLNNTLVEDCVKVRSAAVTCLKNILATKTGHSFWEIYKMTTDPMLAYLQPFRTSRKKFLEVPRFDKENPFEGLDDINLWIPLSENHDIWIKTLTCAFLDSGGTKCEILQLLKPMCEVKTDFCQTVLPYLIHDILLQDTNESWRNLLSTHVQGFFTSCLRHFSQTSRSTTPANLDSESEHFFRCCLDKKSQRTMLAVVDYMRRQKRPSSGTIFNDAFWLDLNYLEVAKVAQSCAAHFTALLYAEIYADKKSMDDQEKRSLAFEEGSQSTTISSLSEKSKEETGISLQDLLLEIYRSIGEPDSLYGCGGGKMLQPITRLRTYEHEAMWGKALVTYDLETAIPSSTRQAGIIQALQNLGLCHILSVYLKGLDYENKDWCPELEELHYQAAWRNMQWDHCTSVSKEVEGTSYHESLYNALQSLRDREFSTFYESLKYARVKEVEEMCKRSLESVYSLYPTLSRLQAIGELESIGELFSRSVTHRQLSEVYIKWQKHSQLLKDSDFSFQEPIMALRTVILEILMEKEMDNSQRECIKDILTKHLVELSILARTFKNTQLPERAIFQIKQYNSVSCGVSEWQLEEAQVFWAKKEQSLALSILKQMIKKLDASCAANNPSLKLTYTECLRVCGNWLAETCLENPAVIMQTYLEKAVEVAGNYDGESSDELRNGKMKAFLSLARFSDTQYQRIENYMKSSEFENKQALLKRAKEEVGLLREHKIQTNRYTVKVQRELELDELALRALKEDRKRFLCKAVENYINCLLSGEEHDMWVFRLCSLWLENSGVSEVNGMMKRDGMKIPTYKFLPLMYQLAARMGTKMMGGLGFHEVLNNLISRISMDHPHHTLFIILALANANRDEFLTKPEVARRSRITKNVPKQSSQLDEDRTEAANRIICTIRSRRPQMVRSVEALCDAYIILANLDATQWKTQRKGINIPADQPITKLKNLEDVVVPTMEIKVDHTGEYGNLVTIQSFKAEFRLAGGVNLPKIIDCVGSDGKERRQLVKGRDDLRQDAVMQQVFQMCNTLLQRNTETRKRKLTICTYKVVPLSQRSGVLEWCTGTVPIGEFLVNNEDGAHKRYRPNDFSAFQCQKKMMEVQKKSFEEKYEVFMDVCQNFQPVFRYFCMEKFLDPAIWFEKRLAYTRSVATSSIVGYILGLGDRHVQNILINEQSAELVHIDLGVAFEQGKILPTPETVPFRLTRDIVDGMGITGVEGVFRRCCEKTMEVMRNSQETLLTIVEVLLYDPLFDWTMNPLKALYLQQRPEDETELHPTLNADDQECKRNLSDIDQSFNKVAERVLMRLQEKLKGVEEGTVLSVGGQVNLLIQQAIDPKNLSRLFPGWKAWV

Row | IC50 (ATM; [1]) [nM] | IC50 (DNA-PK; ATP 20 μM) [nM] | IC50 (ATM; [2]) [nM] | IC50 (DNA-PK; 20 μM ATP) [nM] | Compound
1 | 1 to 100 | 0.5 to 1 |  |  | CCNC1CN(c2ncc(-c3cc4c5c(cnc4cc3F)N(C)C(=O)C53CCC3)cc2NS(C)(=O)=O)C1 [Example 331, N-(2-(3-(Ethylamino)azetidin-1-yl)-5-(7′-fluoro-3′-methyl-2′-oxo-2′,3′-dihydrospiro [cyclobutane-1,1′-pyrrolo [2,3-c]quinolin]-8′-yl)pyridin-3-yl)methanesulfonamide]
2 |  |  | > 100 | 1 to 100 | CC(C)NCCOc1ncc(-c2cc3c(cc2F)ncc2c3[C@]3(C[C@@H](c4ccncc4)C3)C(=O)N2C)cc1NS(C)(=O)=O [Example 439, trans-N-{5-(7′-Fluoro-3′-methyl-2′-oxo-3-(pyridin-4-yl)-2′,3′-dihydrospiro[cyclobutane-1,1′-pyrrolo[2,3-c]quinolin]-8′-yl)-2-(2-(isopropylamino)ethoxy)pyridin-3-yl)methanesulfonamide]
3 |  |  | 1 to 100 | 1 to 100 | CC(C)NCCOc1ncc(-c2cc3c4c(cnc3cc2F)N(C)C(=O)C42CN(c3ccc(-c4ccccc4)cc3)C2)cc1NS(C)(=O)=O [Example 543, N-(5-(1-([1,1′-Biphenyl]-4-yl)-7′-fluoro-3′-methyl-2′-oxo-2′,3′-dihydrospiro[azetidine-3,1′-pyrrolo[2,3-c]quinolin]-8′-yl)-2-(2-(isopropylamino)ethoxy)pyridin-3-yl)methanesulfonamide]
4 |  |  | 1 to 100 | < 0.5 | Cc1ccc(N2CC3(C2)C(=O)N(C)c2cnc4cc(F)c(-c5cnc(OCCNC(C)C)c(NS(C)(=O)=O)c5)cc4c23)cc1 [Example 526, N-(5-(7′-Fluoro-3′-methyl-2′-oxo-1-(p-tolyl)-2′,3′-dihydrospiro[azetidine-3,1′-pyrrolo[2,3-c]quinolin]-8′-yl)-2-(2-(isopropylamino)ethoxy)pyridin-3-yl)methanesulfonamide hydrochloride]
5 | 1 to 100 | 0.5 to 1 |  |  | CN1C(=O)C2(CCC2)c2c1cnc1ccc(-c3cnc(OCCCN4CCCCC4)c(NS(=O)(=O)c4ccccc4F)c3)cc21 [Example 195, 2-Fluoro-N-(5-(3′-methyl-2′-oxo-2′,3′-dihydrospiro[cyclobutane-1,1′-pyrrolo[2,3-c]quinolin]-8′-yl)-2-(3-(piperidin-1-yl)propoxy)pyridin-3-yl) benzenesulfonamide hydrochloride]
6 | 1 to 100 | > 100 |  |  | CN(C)CCCOc1ncc(-c2ccc3ncc4c(c3c2)C2(CCC2)C(=O)N4C)cc1NS(=O)(=O)c1cncc(C(F)(F)F)c1 [Example 141, N-(2-(3-(Dimethylamino)propoxy)-5-(3′-methyl-2′-oxo-2′,3′-dihydrospiro[cyclobulane-1,1′-pyrrolo[2,3-c]quinolin]-8′-yl)pyridin-3-yl)-5-(trifluoromethyl)pyridine-3-sulfonamide hydrochloride]
7 | 1 to 100 | 0.5 to 1 |  |  | CN(C)CCOc1ncc(-c2ccc3ncc4c(c3c2)C2(CCCC2)C(=O)N4C)cc1NS(=O)(=O)c1ccccc1 [Example 6, N-(2-(2-(Dimethylamino)ethoxy)-5-(3′-methyl-2′-oxo-2′,3′-dihydrospiro[cyclopentane-1,1′-pyrrolo[2,3-c]quinolin]-8′-yl)pyridin-3-yl)benzenesulfonamide]
8 |  |  | 1 to 100 | 1 to 100 | CC(C)NCCOc1ncc(-c2cc3c(cc2F)ncc2c3[C@]3(C[C@H](c4cccc(Cl)c4)C3)C(=O)N2C)cc1NS(C)(=O)=O [Example 418, cis-N-(5-(3-(3-Chlorophenyl)-7′-fluoro-3′-methyl-2′-oxo-2′,3′-dihydrospiro[cyclobutane-1,1′-pyrrolo[2,3-c]quinolin]-8′-yl)-2-(2-(isopropylamino)ethoxy)pyridin-3-yl)methanesulfonamide]
9 | 1 to 100 | 1 to 100 |  |  | CN1C(=O)C2(CCC2)c2c1cnc1ccc(-c3cnc(OCCCN4CCCCC4)c(NS(=O)(=O)c4cccnc4)c3)cc21 [Example 252, N-(5-(3′-Methyl-2′-oxo-2′,3′-dihydrospiro [cyclobutane-1,1′-pyrrolo [2,3-c]quinolin]-8′-yl)-2-(3-(piperidin-1-yl)propoxy)pyridin-3-yl)pyridine-3-sulfonamide]
10 | 1 to 100 | 1 to 100 |  |  | COC1CN(S(=O)(=O)Nc2cc(-c3cc4c5c(cnc4cc3F)N(C)C(=O)C53CCC3)cnc2N2CC(N(C)C)C2)C1 [Example 311, N-(2-(3-(Dimethylamino)azetidin-1-yl)-5-(7′-fluoro-3′-methyl-2′-oxo-2′,3′-dihydrospiro[cyclobulane-1,1′-pyrrolo[2,3-c]quinolin]-8′-yl)pyridin-3-yl)-3-methoxyazetidine-1-sulfonamide formate]
11 | 1 to 100 | 1 to 100 |  |  | CC1CCCN(S(=O)(=O)Nc2cc(-c3ccc4ncc5c(c4c3)C3(CCC3)C(=O)N5C)cnc2OCCCN(C)C)C1 (stereo not drawn) [Example 175, N-(2-(3-(Dimethylamino)propoxy)-5-(3′-methyl-2′-oxo-2′,3′-dihydrospiro [cyclobutane-1,1′-pyrrolo[2,3-c]quinolin]-8′-yl)pyridin-3-yl)-3-methylpiperidine-1-sulfonamide]
12 | 1 to 100 | < 0.5 |  |  | Cc1ccc(S(=O)(=O)Nc2cc(-c3ccc4ncc5c(c4c3)C3(CCC3)C(=O)N5C)cnc2N2CCC(N3CCCCC3)CC2)cn1 [Example 198, N-(2-([1,4′-Bipiperidin]-1′-yl)-5-(3′-methyl-2′-oxo-2′,3′-dihydrospiro[cyclobutane-1,1′-pyrrolo[2,3-c]quinolin]-8′-yl)pyridin-3-yl)-6-methylpyridine-3-sulfonamide hydrochloride]
13 | 1 to 100 | < 0.5 |  |  | CNCCOc1ncc(-c2ccc3ncc4c(c3c2)C2(CCC2)C(=O)N4C)cc1NS(C)(=O)=O [Example 249, N-(5-(3′-Methyl-2′-oxo-2′,3′-dihydrospiro[cyclobutane-1,1′-pyrrolo[2,3-c]quinolin]-8′-yl)-2-(2-(methylamino)ethoxy)pyridin-3-yl) methanesulfonamide]
14 | 1 to 100 | 1 to 100 |  |  | COCCS(=O)(=O)Nc1cc(-c2ccc3ncc4c(c3c2)C2(CCC2)C(=O)N4C)cnc1OCCCN(C)C [Example 266, N-(2-(3-(Dimethylamino)propoxy)-5-(3′-methyl-2′-oxo-2′,3′-dihydrospiro [cyclobutane-1,1′-pyrrolo[2,3-c]quinolin]-8′-yl)pyridin-3-yl)-2-methoxyethane-1-sulfonamide]
15 |  |  | 1 to 100 | 1 to 100 | COc1ccccc1N1CC2(C1)C(=O)N(C)c1cnc3cc(F)c(-c4cnc(OCCNC(C)C)c(NS(C)(=O)=O)c4)cc3c12 [Example 535, N-(5-(7′-Fluoro-1-(2-methoxyphenyl)-3′-methyl-2′-oxo-2′,3′-dihydrospiro [azetidine-3,1′-pyrrolo[2,3-c]quinolin]-8′-yl)-2-(2-(isopropylamino)ethoxy)pyridin-3-yl)methanesulfonamide]
16 | 1 to 100 | 0.5 to 1 |  |  | CN1C(=O)C2(CCC2)c2c1cnc1ccc(-c3cnc(OCCCN4CCCCC4)c(NS(=O)(=O)C4CC4)c3)cc21 [Example 197, N-(5-(3-Methyl-2′-oxo-2′,3′-dihydrospiro[cyclobulane-1,1′-pyrrolo[2,3-c]quinolin]-8′-yl)-2-(3-(piperidin-1-yl)propoxy)pyridin-3-yl)cyclopropanesulfonamide hydrochloride]
17 | 1 to 100 | 1 to 100 |  |  | CN1C(=O)C2(CC2)c2c1cnc1ccc(-c3cnc(OCCC4CCCN4C)c(NS(=O)(=O)C4CC4)c3)cc21 (stereo not drawn) [Example 79, N-(5-(3-Methyl-2′-oxo-2′,3′-dihydrospiro[cyclopropane-1,1′-pyrrolo[2,3-c]quinolin]-8′-yl)-2-(2-(1-methylpyrrolidin-2-yl)ethoxy)pyridin-3-yl)cyclopropanesulfonamide]
18 | 1 to 100 | < 0.5 |  |  | CNC1CN(c2ncc(-c3ccc4ncc5c(c4c3)C3(CCC3)C(=O)N5C)cc2NS(C)(=O)=O)C1 [Example 329, N-(5-(3′-Methyl-2′-oxo-2′,3′-dihydrospiro[cyclobutane-1,1′-pyrrolo[2,3-c]quinolin]-8′-yl)-2-(3-(methylamino)azetidin-1-yl)pyridin-3-yl) methanesulfonamide formate]
19 | 1 to 100 | 1 to 100 |  |  | CN1C(=O)C2(CC2)c2c1cnc1cc(F)c(-c3cnc(OCCCN4CCCCC4)c(NS(=O)(=O)c4ccccc4)c3)cc21 [Example 118, N-(5-(7′-Fluoro-3′-methyl-2′-oxo-2′,3′-dihydrospiro[cyclopropane-1,1′-pyrrolo[2,3-c]quinolin]-8′-yl)-2-(3-(piperidin-1-yl)propoxy)pyridin-3-yl)benzenesulfonamide hydrochloride]
20 | 0.5 to 1 | < 0.5 |  |  | CN1CCN(c2ncc(-c3ccc4ncc5c(c4c3)C3(CCC3)C(=O)N5C)cc2NS(=O)(=O)C2CC2)CC1 [Example 227, N-(5-(3′-Methyl-2′-oxo-2′,3′-dihydrospiro[cyclobutane-1,1′-pyrrolo[2,3-c]quinolin]-8′-yl)-2-(4-methylpiperazin-1-yl)pyridin-3-yl)cyclopropanesulfonamide hydrochloride]
21 | 1 to 100 | 1 to 100 |  |  | CN1CCCC(COc2ncc(-c3ccc4ncc5c(c4c3)C3(CC3)C(=O)N5C)cc2NS(=O)(=O)C2CC2)C1 (stereo not drawn) [Example 86, N-(5-(3′-Methyl-2′-oxo-2′,3′-dihydrospiro[cyclopropane-1,1′-pyrrolo[2,3-c]quinolin]-8′-yl)-2-((1-methylpiperidin-3-yl)methoxy)pyridin-3-yl)cyclopropanesulfonamide]
